Data from publication PMC11189555, “Aryl amino acetamides prevent Plasmodium falciparum ring development via targeting the lipid-transfer protein PfSTART1” (Nature Communications, 2024).
Values joined by “and” are separate entries in the source; they are usually repeats but may differ in a detail not shown here. Equal values may be shown once. Read-outs that look alike come from different tables or passages of the source.

Tested on: 3D7 P. falciparum parasites
Assay: Growth inhibition assay (72 h, LDH activity)
Format: cell-based, Plasmodium falciparum
Conditions: for Growth inhibition, (1 - av / DMSO) x 100: Fig 2B source data, 3D7, per biological replicate; for inhibition at 0.123457 µM: conc 123.457 nM; for inhibition at 0.37037 µM: conc 370.37 nM; for inhibition at 1.11111 µM: conc 1111.11 nM; for inhibition at 3.33333 µM: conc 3333.33 nM; for inhibition at 10 µM: conc 10000 nM
Method: Parasite growth assays with inhibitory compounds were performed as per[11] and are fully described in the Supplementary Information. […]
Growth inhibition assays. Synchronised ring-stage parasites (0.3-0.6% parasitemia, 2% haematocrit) were grown for 72 h in a serial-dilution of the compound under […]
and compound 4. Note that M-833 was first purchased from MolPort (MolPort -002-267-916) then made in-house at WEHI: the differences observed in EC50s across experiments are attributed to the different batches of M -833. For some experiments, 0, 0.25 or 2.5 mM of glucosamine (GlcN) was also added. Experiments were set up in technical duplicates or triplicates. Following a freeze -thaw cycle, lactate dehydrogenase (LDH) activity was assessed as an indicator of parasite growt h 5. 30 μL of parasite culture was incubated for 30 min in the dark with 75 μL Malstat mixture (0.1 M Tris pH 9.0, 20 g/L lactic acid, pH 7.5, 0.2% Triton-X100, 0.5 g/L acetylpyridine adenine dinucleotide (APAD, Sigma), 200 μg/mL nitroblue tetrazolium (NBT; Sigma), 1 μg/mL phenozine ethosulfate (PES; Sigma)). Absorbance was then measured at 650 nm, transformed using the formula below, plotted against the logarithm of the concentrations, and a non-linear regression (log(inhibitor) vs. response, variable slope) was calculated using GraphPad Prism to assess the half-inhibitory […]
Growth inhibition % = (1 − average(sample)− average(uRBC)) ∗ 100 […]
The DMSO samples were also used to assess growth of parasite in the presence of 0.25 and 2.5 mM GlcN (normalised by DMSO in 0 mM GlcN). […]

[1] = Plasmodium falciparum, 3D7, 3D7, 0 mM GlcN, read-out: Growth inhibition assay, NORMALISED
[2] = Plasmodium falciparum, 3D7, 3D7, 0.25 mM GlcN, read-out: Growth inhibition assay, NORMALISED

## Cc1cc(Cl)c(S(=O)(=O)N2CCCC2)cc1OCC(=O)NC1CCCCC1 [M-833]
3D7 replicate 2, M-833 0.15625 uM (plate column as in replicate 1)
  Normalised to DMSO: 42.9307
3D7 replicate 2, M-833 0.3125 uM (plate column as in replicate 1)
  Normalised to DMSO: 17.4092
3D7 replicate 2, M-833 0.625 uM (plate column as in replicate 1)
  Normalised to DMSO: 12.6706
3D7 replicate 2, M-833 1.25 uM (plate column as in replicate 1)
  Normalised to DMSO: 9.0394
3D7 replicate 2, M-833 2.5 uM (plate column as in replicate 1)
  Normalised to DMSO: 8.2153
3D7 replicate 2, M-833 5 uM (plate column as in replicate 1)
  Normalised to DMSO: 8.679
3D7 replicate 2, M-833 10 uM (plate column as in replicate 1)
  Normalised to DMSO: 8.859
M-833 conc 0.00152416 (unit not given)
  Growth inhibition, (1 - av / DMSO) x 100: -18.032% and -5.346% and 12.6336%
M-833 conc 0.00457247 (unit not given)
  Growth inhibition, (1 - av / DMSO) x 100: -25.7702% and -5.3748% and 10.1353%
M-833 conc 0.0137174 (unit not given)
  Growth inhibition, (1 - av / DMSO) x 100: -26.0091% and 2.611% and 15.3938%
M-833 conc 0.0411523 (unit not given)
  Growth inhibition, (1 - av / DMSO) x 100: 13.4703% and 15.2318% and 31.5623%
M-833 conc 0.123457 (unit not given)
  Growth inhibition, (1 - av / DMSO) x 100: 53.3795% and 44.2845% and 58.2697%
M-833 conc 0.37037 (unit not given)
  Growth inhibition, (1 - av / DMSO) x 100: 86.6253% and 82.9734% and 89.4611%
M-833 conc 1.11111 (unit not given)
  Growth inhibition, (1 - av / DMSO) x 100: 95.3188% and 95.9852%
M-833 conc 3.33333 (unit not given)
  Growth inhibition, (1 - av / DMSO) x 100: 96.9668% and 96.3144% and 96.0397%
M-833 conc 10 (unit not given)
  Growth inhibition, (1 - av / DMSO) x 100: 97.5639% and 97.303% and 96.0397%
M-833 0.0390625 uM, 3D7 replicate 3
  Normalised to DMSO: 105.125
M-833 0.078125 uM, 3D7 replicate 3
  Normalised to DMSO: 101.149
M-833 0.15625 uM, 3D7 replicate 3
  Normalised to DMSO: 87.6289
M-833 0.3125 uM, 3D7 replicate 3
  Normalised to DMSO: 55.4639
M-833 0.625 uM, 3D7 replicate 3
  Normalised to DMSO: 35.4934
M-833 1.25 uM, 3D7 replicate 3
  Normalised to DMSO: 26.4801
M-833 2.5 uM, 3D7 replicate 3
  Normalised to DMSO: 22.6804
M-833 5 uM, 3D7 replicate 3
  Normalised to DMSO: 16.5832
M-833 10 uM, 3D7 replicate 3
  Normalised to DMSO: 21.9735
Plasmodium falciparum, 3D7, 3D7, 0 mM GlcN, conc 13.7174 nM, read-out: Growth inhibition assay, NORMALISED
  inhibition at 0.0137174 µM: 20.6%
Plasmodium falciparum, 3D7, 3D7, 0 mM GlcN, conc 41.1523 nM, read-out: Growth inhibition assay, NORMALISED
  inhibition at 0.0411523 µM: 44.4%
[1]
  inhibition at 0.123457 µM: 79.5%
  inhibition at 0.37037 µM: 90.2%
  inhibition at 1.11111 µM: 91.3%
  inhibition at 3.33333 µM: 93.7%
  inhibition at 10 µM: 94.5%
[2]
  inhibition at 0.123457 µM: 77.6%
  inhibition at 0.37037 µM: 91.4%
  inhibition at 1.11111 µM: 95.5%
  inhibition at 3.33333 µM: 94.5%
  inhibition at 10 µM: 92.9%
Plasmodium falciparum, 3D7, 3D7 replicate 1, M-833 0.0390625 uM
  inhibition at 0.0390625 µM: 6.15%
Plasmodium falciparum, 3D7, 3D7 replicate 1, M-833 0.078125 uM
  inhibition at 0.078125 µM: 21.8%
Plasmodium falciparum, 3D7, 3D7 replicate 1, M-833 0.15625 uM
  inhibition at 0.15625 µM: 47%
Plasmodium falciparum, 3D7, 3D7 replicate 1, M-833 0.3125 uM
  inhibition at 0.3125 µM: 68.2%
